According to ChEMBL document CHEMBL4033647, “Novel coumarin- and quinolinone-based polycycles as cell division cycle 25-A and -C phosphatases inhibitors induce proliferation arrest and apoptosis in cancer cells” (Eur J Med Chem, 2017):
pIC50: −log10 of the molar value.

Assays:
[1] = Cytotoxicity against human U373n cells assessed as reduction in cell viability after 72 hrs by MTT assay; format: functional, cell-based
[2] = biological target: T1, M-phase inducer phosphatase 3 (Homo sapiens, UniProt P30307); assay: Inhibition of recombinant human full length GST-tagged CDC25C expressed in Escherichia coli BL21-DE3 pLysS using 3-O-methylfluorescein phosphate as substrate after 2 hrs by fluorimetric analysis
T1 sequence (P30307 whole entry): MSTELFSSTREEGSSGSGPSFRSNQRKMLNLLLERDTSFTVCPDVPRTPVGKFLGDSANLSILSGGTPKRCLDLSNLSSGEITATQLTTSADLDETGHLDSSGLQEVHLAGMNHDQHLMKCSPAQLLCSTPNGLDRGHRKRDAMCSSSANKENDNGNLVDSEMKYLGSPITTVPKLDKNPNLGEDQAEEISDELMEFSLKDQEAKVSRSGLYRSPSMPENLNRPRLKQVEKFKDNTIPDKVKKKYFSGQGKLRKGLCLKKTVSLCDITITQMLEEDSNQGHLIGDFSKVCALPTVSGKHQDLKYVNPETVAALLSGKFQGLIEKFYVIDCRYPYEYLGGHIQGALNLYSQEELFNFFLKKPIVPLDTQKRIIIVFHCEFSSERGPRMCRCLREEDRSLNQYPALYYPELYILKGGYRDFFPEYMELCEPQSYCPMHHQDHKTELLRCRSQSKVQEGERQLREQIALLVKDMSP

PC-3 = assay: Cytotoxicity against human PC3 cells assessed as reduction in cell viability after 72 hrs by MTT assay; format: functional, cell-based; settings: PC-3, 72 h
MCF7 = assay: Cytotoxicity against human MCF7 cells assessed as reduction in cell viability after 72 hrs by MTT assay; format: functional, cell-based; settings: MCF7, 72 h
SK-MEL-28 = assay: Cytotoxicity against human SK-MEL-28 cells assessed as reduction in cell viability after 72 hrs by MTT assay; format: functional, cell-based; settings: SK-MEL-28, 72 h
A549 = assay: Cytotoxicity against human A549 cells assessed as reduction in cell viability after 72 hrs by MTT assay; format: functional, cell-based; settings: A549, 72 h
Hs 683 = assay: Cytotoxicity against human Hs683 cells assessed as reduction in cell viability after 72 hrs by MTT assay; format: functional, cell-based; settings: Hs 683, 72 h
[3] = biological target: T2, M-phase inducer phosphatase 1 (Homo sapiens, UniProt P30304); assay: Inhibition of recombinant human full length GST-tagged CDC25A expressed in Escherichia coli BL21-DE3 pLysS using 3-O-methylfluorescein phosphate as substrate after 2 hrs by fluorimetric analysis
T2 sequence (P30304 whole entry): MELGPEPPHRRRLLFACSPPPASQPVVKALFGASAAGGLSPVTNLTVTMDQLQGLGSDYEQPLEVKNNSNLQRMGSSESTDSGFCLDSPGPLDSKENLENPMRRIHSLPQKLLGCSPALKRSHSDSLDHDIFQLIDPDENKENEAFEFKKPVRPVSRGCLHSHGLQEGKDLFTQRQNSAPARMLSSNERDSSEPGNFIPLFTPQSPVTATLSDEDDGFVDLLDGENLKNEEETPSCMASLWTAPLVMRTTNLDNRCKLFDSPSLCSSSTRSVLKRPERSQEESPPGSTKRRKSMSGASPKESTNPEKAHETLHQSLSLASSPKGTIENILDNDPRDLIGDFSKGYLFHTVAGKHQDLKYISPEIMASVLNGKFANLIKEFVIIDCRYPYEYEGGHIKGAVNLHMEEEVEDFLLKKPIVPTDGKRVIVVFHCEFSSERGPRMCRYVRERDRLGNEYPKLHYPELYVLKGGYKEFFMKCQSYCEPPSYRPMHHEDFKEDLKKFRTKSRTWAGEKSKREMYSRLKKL

Homo sapiens = species: Homo sapiens; assay: Selectivity ratio of IC50 for recombinant human full length GST-tagged CDC25A expressed in Escherichia coli BL21-DE3 pLysS to IC50 for recombinant human full length GST-tagged CDC25C expressed in Escherichia coli BL21-DE3 pLysS

pIC50 [2] | pIC50 [3] | Ratio IC50 (Homo sapiens) | SMILES | pIC50 [1] | pIC50 (PC-3) | pIC50 (MCF7) | pIC50 (SK-MEL-28) | pIC50 (A549) | pIC50 (Hs 683)
5.84 | 5.59 |  | O=C1C=CC(=O)c2c1ccc1c2c(=O)oc2ccc(Cl)cc21 | 4.92 | 4.72 | 4.89 | 4.48 | 4.60 | 5.22
6.10 | 5.18 |  | O=C1C=CC(=O)c2c1ccc1c2c(=O)oc2cc(O)ccc21 | 5.05 | 4.57 | 5.05 | 4.54 | 4.72 | 4.96
5.15 | 5.51 |  | O=C1C=CC(=O)c2c1ccc1c2c(=O)oc2cc(OCc3ccccc3)ccc21 | < 4.00 | < 4.00 | < 4.00 | < 4.00 | < 4.00 | < 4.00
4.83 | 4.89 |  | Cn1c(=O)c2c3c(ccc2c2ccccc21)C(=O)C=CC3=O | 4.39 | 4.49 | 4.47 | 4.17 | 4.17 | 4.17
5.26 | 5.39 |  | O=C1C=CC(=O)c2c1ccc1c2c(=O)[nH]c2cc(Cl)ccc21 | 6.00 | 5.40 | 5.70 | 5.30 | 6.89 | 6.00
6.52 | 5.92 |  | CCN(CC)c1ccc2c(c1)oc(=O)c1c3c(ccc12)C(=O)C=CC3=O | 4.23 | 4.35 | 4.24 | 4.14 | 4.01 | 4.01
6.00 | 5.54 |  | Cc1ccc2c(c1)oc(=O)c1c3c(ccc12)C(=O)C=CC3=O | 4.01 | < 4.00 | 4.09 | < 4.00 | < 4.00 | < 4.00
5.35 | 5.55 |  | O=C1C=CC(=O)c2c1ccc1c2c(=O)[nH]c2cc(F)ccc21 | 5.52 | 5.40 | 4.57 | 5.10 | 4.74 | 5.05
6.16 | 5.66 |  | O=C1C=CC(=O)c2c1ccc1c2c(=O)oc2cc(F)ccc21 | 5.15 | 4.44 | 4.96 | 4.74 | 6.00 | 5.40
5.36 | 5.49 |  | O=C1C=CC(=O)c2c1ccc1c2c(=O)[nH]c2c3ccccc3ccc12 | 4.38 | 4.38 | 4.52 | 4.14 | 4.35 | 4.52
6.01 | 5.54 |  | COc1ccc2c(c1)oc(=O)c1c3c(ccc12)C(=O)C=CC3=O | 4.80 | 4.51 | 5.05 | 4.51 | 4.52 | 4.62
6.40 | 5.46 | 8.75 | O=C1C=CC(=O)c2c1ccc1c2c(=O)oc2ccc(F)cc21 | 4.44 | 4.37 | 5.52 | 4.40 | 4.77 | 4.72
5.33 | 5.47 |  | O=C1C=CC(=O)c2c1ccc1c2c(=O)[nH]c2ccc(F)cc21 | 5.70 | 5.52 | 5.40 | 5.52 | 5.40 | 5.52
 |  |  | O=C1C(SCCO)=C(SCCO)C(=O)c2ccccc21 | 5.73 | 5.47 | 6.02 | 5.64 | 5.84 | 5.55
7.00 | 5.82 | 15 | O=C1C=CC(=O)c2c1ccc1c2c(=O)oc2c3ccccc3ccc12 | 4.26 | 4.12 | 5.15 | < 4.00 | 4.15 | 5.40
